Measured values taken from publication PMC7748244 (ACS Infectious Diseases, 2020).

Target: T1, PfJmj3 (Plasmodium falciparum, UniProt Q8IIE4)
T1 sequence (Q8IIE4 1-446): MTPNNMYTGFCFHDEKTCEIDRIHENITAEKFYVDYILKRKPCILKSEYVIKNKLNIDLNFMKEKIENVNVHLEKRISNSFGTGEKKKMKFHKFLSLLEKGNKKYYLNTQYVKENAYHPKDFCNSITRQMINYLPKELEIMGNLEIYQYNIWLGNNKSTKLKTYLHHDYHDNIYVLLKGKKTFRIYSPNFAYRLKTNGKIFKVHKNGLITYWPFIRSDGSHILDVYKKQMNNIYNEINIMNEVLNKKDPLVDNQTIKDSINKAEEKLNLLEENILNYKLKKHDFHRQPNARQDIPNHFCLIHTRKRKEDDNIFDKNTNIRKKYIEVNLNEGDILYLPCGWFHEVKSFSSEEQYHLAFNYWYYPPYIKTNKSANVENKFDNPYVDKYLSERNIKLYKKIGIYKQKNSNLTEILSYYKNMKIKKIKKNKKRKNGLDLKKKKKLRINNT
Experiment: Succinate-Glo luciferase-coupled assay
Assay type: biochemical

Row | IC50 [nM] | SMILES
1 | 3300 | CN(C)CCCNC(=O)c1ccc(-c2cc(O)c3ncccc3c2)cc1 [ML324]
2 | 2400 | CC(C)C(=O)NC(c1ccco1)c1ccc2cccnc2c1O (stereo not drawn) [SD-70]
3 | 2600 | Clc1ccc(N/N=C(\c2ccccc2)c2ccccn2)nc1 [JIB-04 E]
